# According to US20260315434A1, “USE OF GUAIACOL SESQUITERPENE LACTONE DERIVATIVES” (NANJING UNIVERSITY OF CHINESE MEDICINE, priority 2023, published 2026):
# What was measured:
# [1] = tested on: CCR2 mRNA; test: Inhibition of CCR2 mRNA level in MDSCs; format: cell-based; conditions: Mus musculus, 2 h, read-out: Suppression Rate (inhibition of CCR2 mRNA levels)
# Description: Under sterile conditions, the tibia was removed, both ends of the bone were cut, and bone marrow was repeatedly flushed into a 15 mL centrifuge tube using a 1 mL syringe filled with culture medium. Centrifuge at 1600 rpm for 5 min to collect bone marrow cells. […] Count cells and adjust density to 1×10^6 cells/mL in complete medium. Seed cells uniformly into 6-well plates at 2 mL per well. […] After incubation, collect cells into centrifuge tubes, centrifuge at 1600 rpm for 5 min, wash once with 1×PBS, and add 500 μL RNA extraction reagent to each tube. After centrifugation to obtain the pellet, add 20 μL DEPC-treated water to each tube to dissolve the pellet. Determine RNA concentration and reverse transcribe to cDNA. Add the cDNA, primers, and […] to a 96-well plate. Centrifuge at 4000 rpm for 5 min, then place in a PCR instrument for detection.
# [2] = tested on: MDSCs; test: Inhibition of MDSC chemotaxis (Transwell, tumor-conditioned medium); format: cell-based, mouse; design: inhibition of MDSC chemotaxis compared to Arg: dose or concentration left out as unconfirmed; conditions: for inhibition at 1 µM / inhibition at 10 µM: Mus musculus, read-out: Suppression Rate (MDSC chemotaxis); for inhibition of MDSC chemotaxis compared to Arg: result in words
# Description: Hepa1-6 mouse hepatocellular carcinoma cells were uniformly seeded into 6-well plates. After cells reached confluence, supernatant was aspirated, and 1-1.5 mL fresh medium was added to each well. Following 24 h culture, supernatant was collected, centrifuged at 1600 rpm for 5 min, aspirated, and filtered through a 0.22 μm membrane to obtain tumor-conditioned medium for subsequent use. […] Under sterile conditions, remove the tibia, cut both ends of the bone, and aspirate the bone marrow into a 1 mL syringe. Repeat flushing into a 15 mL centrifuge tube. Centrifuge at 1600 rpm for 5 min to collect bone marrow cells. Wash twice with 1×PBS. […] Count cells, adjust density to 1×10^6 cells/mL, and uniformly seed into 24-well plates at 300 μL per well. […] Centrifuge at 1600 rpm for 5 min, remove supernatant, resuspend cells in 300 μL fresh medium, and place into Transwell chambers. […] Co-culture for 24 h.
# [3] = tested on: T cells / MDSCs; test: Promotion of T cell proliferation in a co-culture model of MDSCs and T cells; format: cell-based, mouse; conditions: for T cell proliferation in MDSC-T cell co-culture: result in words; for activation at 1 µM: Mus musculus, T-cell, 12 h, read-out: T-cell proliferation rate (%), 1 μM, MDSCs treated 12 hours, co-culture of MDSCs and T cells, compared to the control group
# Method in brief: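 Bone-marrow MDSCs, after compound treatment, were co-cultured 48 h at 1:1 with CFDA-SE-labelled (10 μM solution), activated splenic T cells. Proliferation of CD3+ T cells was read by flow cytometry.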
# [4] = Water solubility testing of compounds (HPLC); conditions: deionized water, 37 °C
# [5] = tested on: serum ALT and AST; test: CCl4-induced acute liver injury, serum ALT and AST; format: in vivo, C57BL/6 mice; conditions: 200 mg/kg
# Description: (§1) They were acclimated for 7 days before use in experiments.
# (§2) Mice were randomly assigned to groups. One group was arbitrarily designated as the normal group, while the remaining groups served as model group, Compound 1 group, Hydrochloride 20 group, Fumarate 21 group, and Silibinin group, with 6 mice per group. Except for the normal group receiving 10 mL olive oil/kg via injection, all other mice received 0.5 mL CCl4+9.5 mL olive oil/kg body weight via intraperitoneal injection, maintaining a CCl4 to olive oil ratio of 1:19. Starting from day 1 of modeling, Compound 1, Hydrochloride 20, and Fumarate 21 were administered orally for 3 consecutive days.
# (§3) The blood was allowed to stand at room temperature for 2 hours, then centrifuged at 3000 rpm for 20 minutes. Serum was aspirated, aliquoted, and stored at −70° C. for future use. After blood collection, euthanize mice by cervical dislocation. Perform laparotomy to remove the liver. Rinse twice with pre-chilled PBS. Excise the left hepatic lobe tissue. […] Store remaining tissue at −70° C. for future use.
# Serum AST and ALT Assay: Use 10 μL of each sample for testing. Determine mouse serum AST and ALT levels according to the operating manual. Measure absorbance at 510 nm using an enzyme-linked immunosorbent assay (ELISA) reader. Calculate sample concentration (U/L) based on the standard curve.
# (§4) Data Statistics: All data are expressed as means f standard error of the mean (S.E.M.). Differences were analyzed for significance using analysis of variance (ANOVA). For groups showing significant differences in ANOVA, one-way ANOVA followed by Dunnett's test was performed to compare intergroup differences.
# [6] = tested on: fibrosis-related factors (Acta2, Col1a1, Tgfb1) in liver tissue; test: CCl4-induced acute liver injury, liver fibrosis-related factor mRNA; format: in vivo, C57BL/6 mice; design: unit not given here; conditions: 200 mg/kg
# Description: as §1, §2, §3
# Q-PCR Analysis: Tissue total RNA extraction, cDNA synthesis, and PCR amplification methods are identical to Example 4. Additional primer information is as follows:
# as §4
Compound,inhibition at 1 µM [1] [%],inhibition at 10 µM [1] [%],inhibition at 1 µM [2] [%],inhibition at 10 µM [2] [%],"T-cell proliferation rate (%) ([3]; 1 μM, MDSCs treated 12 hours, co-culture of MDSCs and T cells, compared to the control group)",T cell proliferation in MDSC-T cell co-culture ([3]; 1 μM),Water-solubility [4] [µg/mL],inhibition of MDSC chemotaxis compared to Arg [2],activation at 1 µM [3] [%],"solubility ([4]; water, Water-solubility) [µg/mL]",ALT [5] [U/L],AST [5] [U/L],"Acta2 mRNA expression, liver [6]","Col1a1 mRNA expression, liver [6]","Tgfb1 mRNA expression, liver [6]"
C=C1C(=O)O[C@H]2[C@H]1CCC(C)=C1CC[C@@](C)(OC(=O)NCCN3CCOCC3)[C@@H]12 [Compound 78],23,52.7,29,67.1,+++ (T-cell proliferation rate >40% compared to the control group),significantly enhanced T-cell proliferation,200,,,,,,,,
C=C1C(=O)O[C@H]2[C@H]1CCC(C)=C1CC[C@@](C)(OC(=O)N3CCCC3)[C@@H]12 [Compound 82],28.5,74.4,38.5,77.6,,significantly enhanced T-cell proliferation,,superior inhibition rates,> 40,148,,,,,
C=C1C(=O)O[C@H]2[C@H]1CCC(C)=C1CC[C@@](C)(OC(=O)N3CCCCC3)[C@@H]12 [Compound 83],17,70,29.4,75.9,,significantly enhanced T-cell proliferation,152,superior inhibition rates,> 40,,,,,,
Silybin [reference compound],,,,,,,,,,,121.58 ± 15.45,301.45 ± 38.44,2.91 ± 0.48,1.84 ± 0.17,1.11 ± 0.08
